Data taken from BindingDB's records for PubMed 35777718 (Wuxi Apptec, 2022).

Assay: Inhibition of Kir2.1 (unknown origin)

Row | SMILES | IC50
1 | C[C@]1(CN2Cc3nc(-c4ccc(F)cc4)sc3C2)Cn2cc([N+](=O)[O-])nc2O1 | > 40 µM
2 | C[C@]1(CN2Cc3nc(-c4ccc(F)cc4)sc3C2)CN=C(N)O1 | > 13.3 µM
